Experimental data reported in patent US10168342B2, “Lipid probes and uses thereof” (THE SCRIPPS RESEARCH INSTITUTE, priority 2015, dated 2019).

Experiments:
Assay in all cases: isoTOP-ABPP mapping of AEA-DA-modified peptides in Neuro2a cells
Assay type in all cases: cell-based
[1] = biological target: T1, AEA-DA-modified peptides in Neuro2a cells (Mus musculus, UniProt O35737); conditions: AEA-DA-modified peptide HNRNPH 1 O35737 50-69, SEQ ID NO 49; probe 100 μM, 12 replicates
T1 construct: endogenous in cells; host or cells: Neuro2a
T1 sequence (O35737 whole entry): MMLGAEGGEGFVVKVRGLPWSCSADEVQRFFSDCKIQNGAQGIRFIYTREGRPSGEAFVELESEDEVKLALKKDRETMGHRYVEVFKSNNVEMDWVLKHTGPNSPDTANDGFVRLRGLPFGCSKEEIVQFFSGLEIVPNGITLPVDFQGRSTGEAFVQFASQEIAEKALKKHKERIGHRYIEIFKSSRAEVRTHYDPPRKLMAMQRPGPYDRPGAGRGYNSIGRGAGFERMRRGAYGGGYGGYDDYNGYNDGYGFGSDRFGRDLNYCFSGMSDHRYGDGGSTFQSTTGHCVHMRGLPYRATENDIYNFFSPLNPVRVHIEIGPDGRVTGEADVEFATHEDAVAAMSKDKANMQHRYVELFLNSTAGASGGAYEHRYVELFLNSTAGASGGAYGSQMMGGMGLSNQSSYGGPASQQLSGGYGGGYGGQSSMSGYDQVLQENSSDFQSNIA
Description: (§1) Experiments were performed as described above using the AEA-DA probe (100 μM) in 3.0 mL of DMEM (serum-free) and Neuro2A cells without (twelve replicates; ten biological; two technical). For the ligand competition study, cells were treated with the AEA-DA probe (50 μM) and DMSO or MJN228 (50 μM) treatment. Cells were harvested and processed as described above. Whole cell lysates (500 μL at 1.5 mg/mL) were processed for MS analysis using the previously described isoTOPABPP protocol (Speers and Cravatt, 2005). In brief, for global mapping of AEA-DA-modified peptides, proteomes were split into two fractions, which were subjected to click chemistry conditions with either light or heavy isotopically labeled TEV-tags. For the […] competition study, proteomes were subjected to click chemistry conditions with either light (DMSO) or heavy (MJN228-treated) TEV-tags. Light and heavy-tagged proteomes in each experiment were then combined, and, following enrichment of probe-labeled targets using streptavidin beads, proteins were digested on-bead with trypsin and remaining immobilized peptides released with a subsequent TEV protease digestion. The resulting probe-modified peptides were collected for MS analysis, which was performed as described above with differences in the salt bumps applied in the chromatographic gradients which were 0%, 30%, 60%, 90% and 100% NH4OAc (500 mM). The protein identification searches of the MS data were performed using the same software packages described above with the following changes applied to identify the peptides modified with AEA-DA and the cleaved TEV tag. All amino acids were considered as possible residues for modification. To facilitate the computational searches, sets of up to 3 amino acids were searched using ProLuCID and filtered with DTASelect as described above. The mass of the modification used to search for probe-modified peptides was +727.4745 m/z for the probe plus the light TEV-tag and +733.4831 m/z for the heavy counterpart. […] For global mapping experiments, AEA-DA-modified peptides were expected to show a ratio of “heavy” and “light” signals of ˜1.0 (0.5<ratio<2.0) and were required to have been detected in at least two of the twelve replicate experiments.
(§2) In some embodiments, the ligands are tested for their interaction to NUCB1 in cells. […] MJN228 inhibited lipid probe binding to NUCB1 at concentrations as low as 10 μM, with near-maximal inhibition observed at ˜25 μM (FIG. 16A). […] The site of arachidonoyl probe (and MJN228) binding to NUCB1 was mapped in cells, which was accomplished by treating Neuro2A cells with the AEA-DA probe (50 μM) in the presence of DMSO or MJN228 (50 μM), followed by UV irradiation, CuAAC conjugation of AEA-DA-labeled proteins to isotopically light (DMSO-treated cells) and heavy (MJN228-treated cells) azide-biotin tags featuring a TEV protease-cleavable linker, and LCMS/MS analysis using a previously described platform, termed isoTOP-ABPP, for mapping probe-modified peptides in proteomes (Speers and Cravatt, 2005). A AEA-DA labeled peptide was identified for NUCB1 (aa 53-68) in DMSO-treated cells and the signals for this peptide were substantially (>5-fold) reduced in MJN228-treated cells (FIG. 15C). This AEA-DA labeling site was confirmed using recombinant, purified hNUCB1 and tandem MS analysis which narrowed down the site of probe modification to His67 (FIGS. 16B and 16C).

[2] = biological target: T2, AEA-DA-modified peptides in Neuro2a cells (Mus musculus, UniProt P00375); conditions: AEA-DA-modified peptide DHFR P00375 20-34, SEQ ID NO 30; probe 100 μM, 12 replicates
T2 construct: endogenous in cells; host or cells: Neuro2a
T2 sequence (P00375 whole entry): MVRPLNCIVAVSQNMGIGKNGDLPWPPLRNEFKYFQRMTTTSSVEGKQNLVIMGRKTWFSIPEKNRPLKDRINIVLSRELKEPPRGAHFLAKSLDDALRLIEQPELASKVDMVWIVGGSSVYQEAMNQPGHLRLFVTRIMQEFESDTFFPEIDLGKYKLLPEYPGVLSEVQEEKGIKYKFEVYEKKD
Description: as §1, §2

[3] = biological target: T3, AEA-DA-modified peptides in Neuro2a cells (Mus musculus, UniProt P61161); conditions: AEA-DA-modified peptide ACTR2 P61161 259-295, SEQ ID NO 5; probe 100 μM, 12 replicates
T3 construct: endogenous in cells; host or cells: Neuro2a
Description: as §1, §2

[4] = biological target: T4, AEA-DA-modified peptides in Neuro2a cells (Mus musculus, UniProt Q64310); conditions: probe 100 μM, 12 replicates
T4 construct: endogenous in cells; host or cells: Neuro2a
T4 sequence (Q64310 whole entry): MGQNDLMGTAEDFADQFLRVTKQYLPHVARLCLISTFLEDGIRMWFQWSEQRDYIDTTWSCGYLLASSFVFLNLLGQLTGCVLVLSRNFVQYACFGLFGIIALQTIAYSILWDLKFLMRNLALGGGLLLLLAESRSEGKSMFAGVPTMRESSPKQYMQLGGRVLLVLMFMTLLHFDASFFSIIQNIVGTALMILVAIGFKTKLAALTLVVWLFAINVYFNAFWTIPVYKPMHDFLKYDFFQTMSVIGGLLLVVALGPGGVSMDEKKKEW
Description: as §1, §2

[5] = biological target: T5, AEA-DA-modified peptides in Neuro2a cells (Mus musculus, UniProt Q8C4B4); conditions: AEA-DA-modified peptide UNC119B Q8C4B4 142-151, SEQ ID NO 118; probe 100 μM, 12 replicates
T5 construct: endogenous in cells; host or cells: Neuro2a
T5 sequence (Q8C4B4 whole entry): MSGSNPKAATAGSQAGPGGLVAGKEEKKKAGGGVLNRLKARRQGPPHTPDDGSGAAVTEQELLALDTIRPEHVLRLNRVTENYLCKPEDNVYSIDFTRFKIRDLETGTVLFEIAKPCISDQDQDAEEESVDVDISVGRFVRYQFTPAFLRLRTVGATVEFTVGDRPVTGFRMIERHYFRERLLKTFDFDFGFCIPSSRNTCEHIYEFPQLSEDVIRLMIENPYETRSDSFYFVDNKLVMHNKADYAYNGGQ
Description: as §1, §2

[6] = biological target: T6, AEA-DA-modified peptides in Neuro2a cells (Mus musculus, UniProt Q8VC28); conditions: AEA-DA-modified peptide AKR1C13 Q8VC28 48-69, SEQ ID NO 7; probe 100 μM, 12 replicates
T6 construct: endogenous in cells; host or cells: Neuro2a
T6 sequence (Q8VC28 whole entry): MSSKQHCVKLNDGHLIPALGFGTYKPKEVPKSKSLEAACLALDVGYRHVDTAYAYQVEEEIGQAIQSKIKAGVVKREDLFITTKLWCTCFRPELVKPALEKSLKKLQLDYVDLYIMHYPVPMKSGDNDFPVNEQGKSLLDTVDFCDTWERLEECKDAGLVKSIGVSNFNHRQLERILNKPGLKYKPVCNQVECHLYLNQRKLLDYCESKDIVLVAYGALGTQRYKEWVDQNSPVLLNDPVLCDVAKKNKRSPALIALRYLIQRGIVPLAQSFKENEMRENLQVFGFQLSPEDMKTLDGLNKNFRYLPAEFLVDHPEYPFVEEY
Description: as §1, §2

[7] = biological target: T7, AEA-DA-modified peptides in Neuro2a cells (Mus musculus, UniProt Q8VDN2); conditions: AEA-DA-modified peptide ATP1A1 Q8VDN2 360-386, SEQ ID NO 17; probe 100 μM, 12 replicates
T7 construct: endogenous in cells; host or cells: Neuro2a
Description: as §1, §2

[8] = biological target: T8, AEA-DA-modified peptides in Neuro2a cells (Mus musculus, UniProt Q9CPU0); conditions: AEA-DA-modified peptide GLO1 Q9CPU0 160-180, SEQ ID NO 42; probe 100 μM, 12 replicates
T8 construct: endogenous in cells; host or cells: Neuro2a
T8 sequence (Q9CPU0 whole entry): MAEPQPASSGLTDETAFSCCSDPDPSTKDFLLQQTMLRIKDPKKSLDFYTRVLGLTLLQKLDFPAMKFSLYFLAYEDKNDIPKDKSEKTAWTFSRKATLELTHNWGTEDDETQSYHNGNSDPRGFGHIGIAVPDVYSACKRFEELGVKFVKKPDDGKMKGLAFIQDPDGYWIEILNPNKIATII
Description: as §1, §2

[9] = biological target: T9, AEA-DA-modified peptides in Neuro2a cells (Mus musculus, UniProt Q9D8V0); conditions: AEA-DA-modified peptide HM13 Q9D8V0 62-74, SEQ ID NO 48; probe 100 μM, 12 replicates
T9 construct: endogenous in cells; host or cells: Neuro2a
T9 sequence (Q9D8V0 whole entry): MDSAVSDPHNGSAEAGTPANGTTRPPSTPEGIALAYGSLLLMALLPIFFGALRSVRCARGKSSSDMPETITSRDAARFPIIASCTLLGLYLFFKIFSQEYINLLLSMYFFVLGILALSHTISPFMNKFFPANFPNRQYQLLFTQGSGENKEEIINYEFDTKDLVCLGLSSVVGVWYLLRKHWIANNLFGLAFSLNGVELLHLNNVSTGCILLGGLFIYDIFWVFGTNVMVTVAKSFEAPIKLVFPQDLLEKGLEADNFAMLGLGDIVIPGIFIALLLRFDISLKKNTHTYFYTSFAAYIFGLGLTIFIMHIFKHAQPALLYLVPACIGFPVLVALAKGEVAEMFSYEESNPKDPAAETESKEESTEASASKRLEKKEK
Description: as §1, §2

[10] = biological target: T10, AEA-DA-modified peptides in Neuro2a cells (Mus musculus, UniProt Q9DBL9); conditions: AEA-DA-modified peptide ABHD5 Q9DBL9 321-343, SEQ ID NO 2; probe 100 μM, 12 replicates
T10 construct: endogenous in cells; host or cells: Neuro2a
T10 sequence (Q9DBL9 whole entry): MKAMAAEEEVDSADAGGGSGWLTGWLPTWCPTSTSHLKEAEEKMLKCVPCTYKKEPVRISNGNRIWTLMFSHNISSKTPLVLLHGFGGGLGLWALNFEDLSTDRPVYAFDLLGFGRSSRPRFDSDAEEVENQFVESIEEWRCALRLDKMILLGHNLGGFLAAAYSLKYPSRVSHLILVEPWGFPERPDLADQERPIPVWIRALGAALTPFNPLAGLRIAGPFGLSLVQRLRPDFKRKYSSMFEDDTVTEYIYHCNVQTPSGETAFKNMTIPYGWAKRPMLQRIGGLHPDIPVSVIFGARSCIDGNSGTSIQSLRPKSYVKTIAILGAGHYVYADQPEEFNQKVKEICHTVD
Description: as §1, §2

[11] = biological target: T11, AEA-DA-modified peptides in Neuro2a cells (Mus musculus, UniProt Q9Z2Z6); conditions: AEA-DA-modified peptide SLC25A20 Q9Z2Z6 179-195, SEQ ID NO 103; probe 100 μM, 12 replicates
T11 construct: endogenous in cells; host or cells: Neuro2a
T11 sequence (Q9Z2Z6 whole entry): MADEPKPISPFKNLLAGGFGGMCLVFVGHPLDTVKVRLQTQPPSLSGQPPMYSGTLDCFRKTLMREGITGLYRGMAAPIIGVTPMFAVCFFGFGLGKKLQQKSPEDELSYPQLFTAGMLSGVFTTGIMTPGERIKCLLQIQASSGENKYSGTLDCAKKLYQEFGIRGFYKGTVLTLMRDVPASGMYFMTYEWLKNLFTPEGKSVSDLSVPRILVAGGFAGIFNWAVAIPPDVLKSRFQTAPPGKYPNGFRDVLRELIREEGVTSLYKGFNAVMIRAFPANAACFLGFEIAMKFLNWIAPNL
Description: as §1, §2

Molecule `C#CCCCC1(CC/C=C\C/C=C\C/C=C\CCCC(=O)NCCO)N=N1` [AEA-DA, (5Z,8Z,11Z)-N-(2-hydroxyethyl)-14-(3-(pent-4-yn-1-yl)-3H-diazirin-3-yl)tetradeca-5,8,11-trienamide] has a Times observed [1] of 9, a Times observed [2] of 4 and a Times observed [3] of 2. The Times observed ([4]; AEA-DA-modified peptide SURF4 Q64310 2-20, SEQ ID NO 108) was 10, the Times observed ([4]; AEA-DA-modified peptide SURF4 Q64310 31-44, SEQ ID NO 109) was 3 and the Times observed [5] was 3. It also gave a Times observed [6] of 4, a Times observed [7] of 2 and a Times observed [8] of 2. It also gave a Times observed [9] of 12, a Times observed [10] of 6 and a Times observed [11] of 4.
